Laboratory results taken from ChEMBL document CHEMBL5352412, “Discovery of 1,2-diphenylethene derivatives as human DNA topoisomerase II catalytic inhibitors and antitumor agents” (Eur J Med Chem, 2022).
Several values for one entry are separate records, joined by “and”; a condition that tells them apart may be missing. Equal values may be shown once. Activity calls are given as the source filed them. The rule behind the calls is not given here.

How the values were obtained:
[1] = tested on: HepG2; experiment: Induction of apoptosis in human HepG2 cells assessed as early apoptotic cells at 5 uM incubated for 24 hrs by annexin-V FITC and PI staining based flow cytometry analysis (reference value: 3.7%); format: functional
[2] = Antiproliferative activity against human CCL-226 cells incubated for 72 hrs by CCK8 assay; format: toxicity, cell-based
[3] = tested on: HepG2; experiment: Antiproliferative activity against human HepG2 cells incubated for 72 hrs by CCK8 assay; format: functional, cell-based
[4] = tested on: HepG2; experiment: Induction of apoptosis in human HepG2 cells assessed as necrotic cells at 5 uM incubated for 24 hrs by annexin-V FITC and PI staining based flow cytometry analysis (reference value: 0.2%); format: functional
[5] = tested on: MDA-MB-231; experiment: Antiproliferative activity against human MDA-MB-231 cells incubated for 72 hrs by CCK8 assay; format: functional, cell-based
[6] = target: T1, DNA topoisomerase 2-alpha (Homo sapiens, UniProt P11388); experiment: Poison activity at human topoisomerase 2-alpha assessed as linear DNA formation at 100 to 200 microM; conditions: dose 100-200 µM
[7] = tested on: A549; experiment: Antiproliferative activity against human A549 cells incubated for 72 hrs by CCK8 assay; format: functional, cell-based; conditions: A549, 72 h
[8] = target: T1, DNA topoisomerase 2-alpha; experiment: Inhibition of human topoisomerase 2-alpha assessed as reduction in relaxation of pBR322 DNA at 100 uM measured after 30 mins by agarose gel electrophoresis method relative to control
[9] = Toxicity in C57BL/6J mouse assessed as change in body weight at 500 mg/kg administered via gavage twice at day 1 and measured for 7 days; format: organism-based; conditions: in vivo, po, 168 h, time 7 day
[10] = Antiproliferative activity against human BEAS-2B cells incubated for 72 hrs by CCK8 assay; format: toxicity, cell-based
[11] = tested on: HepG2; experiment: Induction of apoptosis in human HepG2 cells assessed as viable cells at 5 uM incubated for 24 hrs by annexin-V FITC and PI staining based flow cytometry analysis (reference value: 93.8%); format: functional; conditions: read-out: Activity
[12] = Antiproliferative activity against human HL7702 cells incubated for 72 hrs by CCK8 assay; format: toxicity, cell-based; conditions: HL7702 (L02) cells
[13] = tested on: HCT-116; experiment: Antiproliferative activity against human HCT-116 cells incubated for 72 hrs by CCK8 assay; format: functional, cell-based; conditions: HCT-116, 72 h
[14] = tested on: HepG2; experiment: Induction of apoptosis in human HepG2 cells assessed as late apoptotic cells at 5 uM incubated for 24 hrs by annexin-V FITC and PI staining based flow cytometry analysis (reference value: 2.3%); format: functional
[15] = Toxicity in C57BL/6J mouse assessed as animal death at 500 mg/kg administered via gavage twice at day 1 and measured for 7 days; format: organism-based; conditions: in vivo, po, time 7 day, read-out: Activity
[16] = tested on: HeLa; experiment: Antiproliferative activity against human HeLa cells incubated for 72 hrs by CCK8 assay; format: functional, cell-based
[17] = tested on: HepG2; experiment: Induction of cell cycle arrest in human HepG2 cells assessed as accumulation of cells at G1 phase at 1 uM incubated for 24 hrs by PI staining based flow cytometry analysis (reference value: 54%); format: functional
[18] = tested on: HepG2; experiment: Induction of cell cycle arrest in human HepG2 cells assessed as accumulation of cells at S phase at 1 uM incubated for 24 hrs by PI staining based flow cytometry analysis (reference value: 28.2%); format: functional
[19] = tested on: HepG2; experiment: Induction of cell cycle arrest in human HepG2 cells assessed as accumulation of cells at G2/M phase at 1 uM incubated for 24 hrs by PI staining based flow cytometry analysis (reference value: 17.5%); format: functional
[20] = tested on: PC-3; experiment: Antiproliferative activity against human PC-3 cells incubated for 72 hrs by CCK8 assay; format: functional, cell-based; conditions: PC-3, 72 h
[21] = tested on: HepG2; experiment: Upregulation of gamma-H2AX level in human HepG2 cells incubated for 4 hrs by Western blotting analysis; format: functional, cell-based
[22] = target: T1, DNA topoisomerase 2-alpha; experiment: Inhibition of human topoisomerase 2-alpha assessed as DNA intercalation at 100 to 200 uM using pBR322 DNA as substrate measured after 30 mins by agarose gel electrophoresis analysis; conditions: dose 100-200 µM
[23] = Selectivity index, ratio of IC50 for human HL-7702 cells to IC50 for human A549 cells; format: toxicity; conditions: HL-7702 cells versus A549 cells, read-out: Ratio IC50
[24] = organism: Homo sapiens; experiment: Selectivity index, ratio of IC50 for human CCL-226 cells to IC50 for human HepG2 cells
[25] = Selectivity index, ratio of IC50 for human BEAS-2B cells to IC50 for human MDA-MB-231 cells; format: toxicity; conditions: BEAS-2B cells versus MDA-MB-231 cells, read-out: Ratio IC50
[26] = Selectivity index, ratio of IC50 for human HL-7702 cells to IC50 for human HeLa cells; format: toxicity; conditions: HL-7702 cells versus HeLa cells, read-out: Ratio IC50
[27] = target: T1, DNA topoisomerase 2-alpha; experiment: Inhibition of human topoisomerase 2-alpha using pBR322 DNA as substrate incubated for 1 hr in presence of ATP by malachite green phosphate method
[28] = organism: Homo sapiens; experiment: Selectivity index, ratio of IC50 for human CCL-226 cells to IC50 for human MDA-MB-231 cells
[29] = Selectivity index, ratio of IC50 for human HL-7702 cells to IC50 for human HCT-116 cells; format: toxicity; conditions: HL-7702 cells versus HCT-116 cells, read-out: Ratio IC50
[30] = Selectivity index, ratio of IC50 for human BEAS-2B cells to IC50 for human PC-3 cells; format: toxicity; conditions: BEAS-2B cells versus PC-3 cells, read-out: Ratio IC50
[31] = Selectivity index, ratio of IC50 for human BEAS-2B cells to IC50 for human HepG2 cells; format: toxicity; conditions: BEAS-2B cells versus HepG2 cells, read-out: Ratio IC50
[32] = organism: Homo sapiens; experiment: Selectivity index, ratio of IC50 for human CCL-226 cells to IC50 for human HeLa cells
[33] = target: T1, DNA topoisomerase 2-alpha; experiment: Inhibition of human topoisomerase 2-alpha using pBR322 DNA as substrate incubated for 30 mins in presence of 0.5 to 5 mM ATP (reference value: 2.9 microM)
[34] = target: T1, DNA topoisomerase 2-alpha; experiment: Inhibition of human topoisomerase 2-alpha assessed as reduction in relaxation of pBR322 DNA at 25 uM measured after 30 mins by agarose gel electrophoresis method relative to control
[35] = Selectivity index, ratio of IC50 for human HL-7702 cells to IC50 for human HepG2 cells; format: toxicity; conditions: HL-7702 cells versus HepG2 cells, read-out: Ratio IC50
[36] = target: DNA topoisomerase 2-beta (Homo sapiens, UniProt Q02880); experiment: Inhibition of human topoisomerase 2-beta assessed as reduction in relaxation of pBR322 DNA measured after 30 mins by agarose gel electrophoresis method
[37] = Selectivity index, ratio of IC50 for human BEAS-2B cells to IC50 for human HCT-116 cells; format: toxicity; conditions: BEAS-2B cells versus HCT-116 cells, read-out: Ratio IC50
[38] = Selectivity index, ratio of IC50 for human HL-7702 cells to IC50 for human PC-3 cells; format: toxicity; conditions: HL-7702 cells versus PC-3 cells, read-out: Ratio IC50
[39] = Selectivity index, ratio of IC50 for human BEAS-2B cells to IC50 for human A549 cells; format: toxicity; conditions: BEAS-2B cells versus A549 cells, read-out: Ratio IC50
[40] = target: T1, DNA topoisomerase 2-alpha; experiment: Inhibition of human topoisomerase 2-alpha assessed as reduction in relaxation of pBR322 DNA measured after 30 mins by agarose gel electrophoresis method
[41] = Selectivity index, ratio of IC50 for human HL-7702 cells to IC50 for human MDA-MB-231 cells; format: toxicity; conditions: HL-7702 cells versus MDA-MB-231 cells, read-out: Ratio IC50
[42] = organism: Homo sapiens; experiment: Selectivity index, ratio of IC50 for human CCL-226 cells to IC50 for human PC-3 cells
[43] = organism: Homo sapiens; experiment: Selectivity index, ratio of IC50 for human CCL-226 cells to IC50 for human A549 cells
[44] = organism: Homo sapiens; experiment: Selectivity index, ratio of IC50 for human CCL-226 cells to IC50 for human HCT-116 cells
[45] = Selectivity index, ratio of IC50 for human BEAS-2B cells to IC50 for human HeLa cells; format: toxicity; conditions: BEAS-2B cells versus HeLa cells, read-out: Ratio IC50

T1 sequence (P11388 whole entry): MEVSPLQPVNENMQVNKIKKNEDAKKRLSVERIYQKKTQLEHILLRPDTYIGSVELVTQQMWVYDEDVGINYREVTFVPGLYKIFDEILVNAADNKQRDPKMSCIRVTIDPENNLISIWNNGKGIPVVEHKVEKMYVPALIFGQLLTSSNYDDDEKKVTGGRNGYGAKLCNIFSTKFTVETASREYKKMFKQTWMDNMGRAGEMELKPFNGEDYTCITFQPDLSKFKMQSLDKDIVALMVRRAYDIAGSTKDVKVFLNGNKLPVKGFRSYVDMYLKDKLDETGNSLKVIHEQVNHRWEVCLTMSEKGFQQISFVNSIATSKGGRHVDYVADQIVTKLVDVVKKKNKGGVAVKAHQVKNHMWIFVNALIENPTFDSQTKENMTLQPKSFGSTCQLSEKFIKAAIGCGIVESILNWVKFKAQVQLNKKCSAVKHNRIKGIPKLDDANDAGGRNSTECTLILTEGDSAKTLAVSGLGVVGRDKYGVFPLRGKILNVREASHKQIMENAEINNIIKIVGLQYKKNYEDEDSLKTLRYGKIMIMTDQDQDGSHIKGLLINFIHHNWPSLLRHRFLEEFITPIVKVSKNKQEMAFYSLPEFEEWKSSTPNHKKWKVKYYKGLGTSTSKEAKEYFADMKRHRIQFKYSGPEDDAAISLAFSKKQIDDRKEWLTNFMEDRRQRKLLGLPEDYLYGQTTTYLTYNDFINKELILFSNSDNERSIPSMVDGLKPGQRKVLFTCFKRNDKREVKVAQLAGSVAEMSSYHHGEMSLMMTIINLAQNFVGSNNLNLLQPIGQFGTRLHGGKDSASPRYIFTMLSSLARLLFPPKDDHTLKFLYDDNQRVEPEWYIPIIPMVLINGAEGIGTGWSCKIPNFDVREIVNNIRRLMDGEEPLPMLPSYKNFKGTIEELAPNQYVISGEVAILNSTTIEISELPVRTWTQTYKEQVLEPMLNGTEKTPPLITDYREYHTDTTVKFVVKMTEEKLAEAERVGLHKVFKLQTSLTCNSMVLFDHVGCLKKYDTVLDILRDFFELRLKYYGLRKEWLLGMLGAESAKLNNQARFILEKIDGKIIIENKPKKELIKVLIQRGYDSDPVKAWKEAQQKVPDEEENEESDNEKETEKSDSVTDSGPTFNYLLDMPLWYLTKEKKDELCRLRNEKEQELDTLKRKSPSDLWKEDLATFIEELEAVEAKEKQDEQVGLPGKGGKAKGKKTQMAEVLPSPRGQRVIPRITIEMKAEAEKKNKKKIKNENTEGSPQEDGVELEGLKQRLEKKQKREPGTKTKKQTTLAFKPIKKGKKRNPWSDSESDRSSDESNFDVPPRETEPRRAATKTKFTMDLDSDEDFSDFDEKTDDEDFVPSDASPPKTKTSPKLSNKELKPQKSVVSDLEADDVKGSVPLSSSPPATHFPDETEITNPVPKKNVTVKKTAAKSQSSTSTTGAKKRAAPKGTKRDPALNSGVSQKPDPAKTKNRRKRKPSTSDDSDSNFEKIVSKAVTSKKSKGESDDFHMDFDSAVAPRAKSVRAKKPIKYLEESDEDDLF
Sequence of DNA topoisomerase 2-beta (Q02880 whole entry): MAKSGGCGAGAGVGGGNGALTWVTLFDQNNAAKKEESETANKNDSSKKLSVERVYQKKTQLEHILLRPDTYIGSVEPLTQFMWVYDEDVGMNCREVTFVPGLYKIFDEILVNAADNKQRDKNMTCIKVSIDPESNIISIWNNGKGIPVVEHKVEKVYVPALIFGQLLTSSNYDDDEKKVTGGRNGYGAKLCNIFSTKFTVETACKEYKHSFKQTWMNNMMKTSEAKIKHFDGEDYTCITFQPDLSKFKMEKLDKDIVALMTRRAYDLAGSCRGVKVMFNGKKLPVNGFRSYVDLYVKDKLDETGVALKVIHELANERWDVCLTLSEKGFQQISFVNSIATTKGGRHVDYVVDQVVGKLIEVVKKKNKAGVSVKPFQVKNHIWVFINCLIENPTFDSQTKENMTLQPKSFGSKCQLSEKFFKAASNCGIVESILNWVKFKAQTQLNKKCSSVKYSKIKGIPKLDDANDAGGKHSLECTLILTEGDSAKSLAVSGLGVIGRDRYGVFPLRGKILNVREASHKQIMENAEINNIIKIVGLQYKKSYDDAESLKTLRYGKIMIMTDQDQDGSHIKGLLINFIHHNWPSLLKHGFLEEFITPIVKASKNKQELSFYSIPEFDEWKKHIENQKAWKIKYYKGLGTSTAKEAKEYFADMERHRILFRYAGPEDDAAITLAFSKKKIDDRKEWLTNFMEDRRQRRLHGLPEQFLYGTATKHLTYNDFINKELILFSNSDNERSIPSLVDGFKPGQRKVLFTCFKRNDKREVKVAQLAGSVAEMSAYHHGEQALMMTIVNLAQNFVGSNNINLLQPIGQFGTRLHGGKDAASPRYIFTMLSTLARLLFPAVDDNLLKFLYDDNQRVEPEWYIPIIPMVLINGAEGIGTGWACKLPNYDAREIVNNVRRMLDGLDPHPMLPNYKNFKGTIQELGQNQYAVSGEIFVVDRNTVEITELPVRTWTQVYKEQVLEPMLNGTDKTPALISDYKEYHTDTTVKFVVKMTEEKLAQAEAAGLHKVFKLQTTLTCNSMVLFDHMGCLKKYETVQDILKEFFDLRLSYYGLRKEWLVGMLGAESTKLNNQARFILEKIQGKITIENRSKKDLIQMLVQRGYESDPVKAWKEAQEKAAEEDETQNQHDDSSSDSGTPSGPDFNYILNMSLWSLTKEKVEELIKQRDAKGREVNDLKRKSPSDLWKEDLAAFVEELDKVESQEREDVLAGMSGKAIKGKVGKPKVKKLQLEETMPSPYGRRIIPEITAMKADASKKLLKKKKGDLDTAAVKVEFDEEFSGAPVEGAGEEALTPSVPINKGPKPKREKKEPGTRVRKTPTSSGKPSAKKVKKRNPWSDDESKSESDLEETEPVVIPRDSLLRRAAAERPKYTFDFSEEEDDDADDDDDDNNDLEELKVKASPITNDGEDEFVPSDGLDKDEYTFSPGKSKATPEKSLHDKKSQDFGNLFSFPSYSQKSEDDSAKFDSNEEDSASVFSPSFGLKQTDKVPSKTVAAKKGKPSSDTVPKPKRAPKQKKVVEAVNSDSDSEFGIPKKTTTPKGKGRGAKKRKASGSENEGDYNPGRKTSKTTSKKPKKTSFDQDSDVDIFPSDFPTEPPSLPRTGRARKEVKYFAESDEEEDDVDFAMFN

Row | IC50 ([3]; Homo sapiens, HepG2, 72 h) | IC50 ([5]; Homo sapiens, MDA-MB-231, 72 h) | IC50 [7] | inhibition [8] | IC50 [13] | IC50 [16] | IC50 [20] | Ratio IC50 [24] | Ratio IC50 [28] | SMILES | IC50 at 72 h [2] | IC50 at 72 h [10] | IC50 at 72 h [12] | Activity [21] | inhibition [22] | selectivity ratio [23] | selectivity ratio [25] | selectivity ratio [26] | selectivity ratio [29] | selectivity ratio [30] | selectivity ratio [31] | other results
1 | 0.7 µM | 0.8 µM | 1 µM | 81% | 0.6 µM | 0.5 µM | 0.9 µM | > 28.1 | > 28.1 | O=C(/C=C/c1ccccc1)Nc1ccc(-c2ccc3cc(O)ccc3c2)cc1 | > 50 µM | 26.9 µM | > 50 µM | inactive | inactive | > 28.1 | > 28.1 | > 28.1 | > 28.1 | > 28.1 | > 28.1 | inhibition [27]: Dose-Dependent Effect; Activity [6]: inactive; Ratio IC50 [32]: > 28.1; IC50 [33]: 8.6 µM; inhibition [34]: 86.2%; selectivity ratio [35]: > 28.1; IC50 [36]: 17.2 µM; selectivity ratio [37]: > 28.1; selectivity ratio [38]: > 28.1; selectivity ratio [39]: > 28.1; IC50 [40]: 3.3 µM; selectivity ratio [41]: > 28.1; Ratio IC50 [42]: > 28.1; Ratio IC50 [43]: > 28.1; Ratio IC50 [44]: > 28.1; selectivity ratio [45]: > 28.1
2 | 2.4 µM | 4.1 µM | 4.1 µM | 82.6% and 76.1% | 2.1 µM | 1.9 µM | 2.3 µM | > 9.2 | > 9.2 | O=C(/C=C/c1ccccc1)Nc1ccc(/C=C/c2cc(O)cc(O)c2)cc1 | > 50 µM | > 50 µM | 37.8 µM | – | – | > 9.2 | > 9.2 | > 9.2 | > 9.2 | > 9.2 | > 9.2 | IC50 ([3]; hepg2): 2.9 µM; IC50 ([5]; mda-mb-231): 3.6 µM; Ratio IC50 [32]: > 9.2; inhibition [34]: 71.2% and 61.6%; selectivity ratio [35]: > 9.2; IC50 [36]: 195 µM; selectivity ratio [37]: > 9.2; selectivity ratio [38]: > 9.2; selectivity ratio [39]: > 9.2; IC50 [40]: 16.6 µM; selectivity ratio [41]: > 9.2; Ratio IC50 [42]: > 9.2; Ratio IC50 [43]: > 9.2; Ratio IC50 [44]: > 9.2; selectivity ratio [45]: > 9.2

Row | SMILES | IC50 ([3]; Homo sapiens, HepG2, 72 h) | IC50 ([5]; Homo sapiens, MDA-MB-231, 72 h) | IC50 [7] | inhibition [8] | IC50 [13] | IC50 [16] | IC50 [20] | Ratio IC50 [24] | Ratio IC50 [28] | IC50 at 72 h [2] | IC50 at 72 h [10] | IC50 at 72 h [12] | Activity [21] | inhibition [22] | selectivity ratio [23] | selectivity ratio [25] | selectivity ratio [26] | selectivity ratio [29] | selectivity ratio [30] | selectivity ratio [31] | other results
3 | COc1cc([C@@H]2c3cc4c(cc3[C@@H](O[C@@H]3O[C@@H]5CO[C@@H](C)O[C@H]5[C@H](O)[C@H]3O)[C@H]3COC(=O)[C@H]23)OCO4)cc(OC)c1O [ETOPOSIDE] | 8.1 µM | 5.6 µM | 15.1 µM | 43.3% | 2.4 µM | 1.5 µM | 3 µM | – | – | 20.8 µM | 21 µM | 39.1 µM | Active | inactive | – | – | – | – | – | – | Activity [1]: 10.7%; Activity [4]: 0.6%; Activity ([6]; filed as activator): Active; Activity [9]: Toxic; viability at 5 µM [11]: 76.9%; Activity [14]: 11.8%; mortality at 168 h [15]: 33.3%; Activity [17]: 1.1%; Activity [18]: 73.7%; Activity [19]: 25.2%
